Reference: the NIST ThermoML archive (doi:10.1021/acs.jced.5b00820)
± gives the expanded uncertainty stated by the source.

Test: xn = mol fraction of the nth substance listed
Details: 102.2 kPa, Liquid, Vibrating tube method

C[Si](C)(O[Si](C)(C)c1ccccc1)c1ccccc1 [1,3-diphenyltetramethyldisiloxane] + C=C[Si]1(C)O[Si](C)(C=C)O[Si](C)(C=C)O[Si](C)(C=C)O1
mass density [kg/m3]
Details | 308.15 K | 313.15 K | 318.15 K | 323.15 K | 328.15 K
x1 = 0.0511 | 972.67 ± 0.21 | 967.57 ± 0.21 | 962.46 ± 0.21 | 957.29 ± 0.21 | 952.25 ± 0.21
x1 = 0.1004 | 972.68 ± 0.21 | 967.63 ± 0.21 | 962.58 ± 0.21 | 957.53 ± 0.21 | 952.52 ± 0.21
x1 = 0.1503 | 972.67 ± 0.21 | 967.67 ± 0.21 | 962.67 ± 0.21 | 957.67 ± 0.21 | 952.66 ± 0.21
x1 = 0.2 | 972.66 ± 0.21 | 967.72 ± 0.21 | 962.77 ± 0.21 | 957.83 ± 0.21 | 952.88 ± 0.21
x1 = 0.2537 | 972.63 ± 0.21 | 967.74 ± 0.21 | 962.86 ± 0.21 | 957.97 ± 0.21 | 953.1 ± 0.21
x1 = 0.3001 | 972.56 ± 0.21 | 967.72 ± 0.21 | 962.9 ± 0.21 | 958.06 ± 0.21 | 953.26 ± 0.21
x1 = 0.3507 | 972.42 ± 0.21 | 967.63 ± 0.21 | 962.84 ± 0.21 | 958.04 ± 0.21 | 953.25 ± 0.21
x1 = 0.4002 | 972.3 ± 0.21 | 967.56 ± 0.21 | 962.83 ± 0.21 | 958.06 ± 0.21 | 953.33 ± 0.21
x1 = 0.4503 | 972.13 ± 0.21 | 967.44 ± 0.21 | 962.77 ± 0.21 | 958.08 ± 0.21 | 953.42 ± 0.21
x1 = 0.4999 | 971.87 ± 0.21 | 967.23 ± 0.21 | 962.58 ± 0.21 | 957.92 ± 0.21 | 953.25 ± 0.21
x1 = 0.5501 | 971.69 ± 0.21 | 967.12 ± 0.21 | 962.54 ± 0.21 | 957.94 ± 0.21 | 953.39 ± 0.21
x1 = 0.597 | 971.42 ± 0.21 | 966.89 ± 0.21 | 962.34 ± 0.21 | 957.8 ± 0.21 | 953.24 ± 0.21
x1 = 0.6498 | 971.17 ± 0.21 | 966.7 ± 0.21 | 962.23 ± 0.21 | 957.76 ± 0.21 | 953.3 ± 0.21
x1 = 0.7005 | 970.8 ± 0.21 | 966.35 ± 0.21 | 961.92 ± 0.21 | 957.49 ± 0.21 | 953.06 ± 0.21
x1 = 0.7492 | 970.45 ± 0.21 | 966.08 ± 0.21 | 961.71 ± 0.21 | 957.33 ± 0.21 | 952.96 ± 0.21
x1 = 0.8001 | 970.05 ± 0.21 | 965.73 ± 0.21 | 961.41 ± 0.21 | 957.09 ± 0.21 | 952.78 ± 0.21
x1 = 0.8497 | 969.63 ± 0.21 | 965.36 ± 0.21 | 961.11 ± 0.21 | 956.85 ± 0.21 | 952.59 ± 0.21
x1 = 0.8999 | 969.05 ± 0.21 | 964.82 ± 0.21 | 960.59 ± 0.21 | 956.35 ± 0.21 | 952.09 ± 0.21
x1 = 0.9502 | 968.57 ± 0.21 | 964.4 ± 0.21 | 960.23 ± 0.21 | 956.03 ± 0.21 | 951.87 ± 0.21
x1 = 1 | 968.05 ± 0.21 | 963.94 ± 0.21 | 959.84 ± 0.21 | 955.74 ± 0.21 | 951.65 ± 0.21

C[Si](C)(O[Si](C)(C)c1ccccc1)c1ccccc1 [1,3-diphenyltetramethyldisiloxane] + C=C[Si](C)(C)O[Si](C)(C)C=C
mass density [kg/m3]
Details | 308.15 K | 313.15 K | 318.15 K | 323.15 K | 328.15 K
x1 = 0.0502 | 809.57 ± 0.24 | 804.7 ± 0.24 | 799.79 ± 0.24 | 794.89 ± 0.24 | 789.94 ± 0.24
x1 = 0.1 | 820.63 ± 0.23 | 815.84 ± 0.23 | 811.01 ± 0.23 | 806.21 ± 0.24 | 801.35 ± 0.24
x1 = 0.1487 | 831.07 ± 0.23 | 826.38 ± 0.23 | 821.62 ± 0.23 | 816.9 ± 0.23 | 812.12 ± 0.23
x1 = 0.2002 | 841.7 ± 0.23 | 837.11 ± 0.23 | 832.41 ± 0.23 | 827.77 ± 0.23 | 823.05 ± 0.23
x1 = 0.2498 | 851.61 ± 0.23 | 847.08 ± 0.23 | 842.45 ± 0.23 | 837.87 ± 0.23 | 833.22 ± 0.23
x1 = 0.3 | 861.28 ± 0.22 | 856.78 ± 0.23 | 852.19 ± 0.23 | 847.66 ± 0.23 | 843.06 ± 0.23
x1 = 0.3503 | 870.64 ± 0.22 | 866.2 ± 0.22 | 861.68 ± 0.22 | 857.2 ± 0.22 | 852.68 ± 0.23
x1 = 0.3994 | 879.46 ± 0.22 | 875.05 ± 0.22 | 870.55 ± 0.22 | 866.12 ± 0.22 | 861.63 ± 0.22
x1 = 0.4502 | 888.32 ± 0.22 | 883.96 ± 0.22 | 879.52 ± 0.22 | 875.17 ± 0.22 | 870.72 ± 0.22
x1 = 0.5001 | 896.73 ± 0.22 | 892.42 ± 0.22 | 888.02 ± 0.22 | 883.7 ± 0.22 | 879.29 ± 0.22
x1 = 0.5498 | 904.84 ± 0.22 | 900.61 ± 0.22 | 896.23 ± 0.22 | 891.95 ± 0.22 | 887.57 ± 0.22
x1 = 0.6002 | 912.8 ± 0.22 | 908.56 ± 0.22 | 904.21 ± 0.22 | 899.93 ± 0.22 | 895.59 ± 0.22
x1 = 0.6502 | 920.47 ± 0.21 | 916.26 ± 0.21 | 911.95 ± 0.21 | 907.71 ± 0.22 | 903.38 ± 0.22
x1 = 0.7004 | 927.9 ± 0.21 | 923.73 ± 0.21 | 919.47 ± 0.21 | 915.27 ± 0.21 | 911 ± 0.21
x1 = 0.7504 | 935.1 ± 0.21 | 930.94 ± 0.21 | 926.72 ± 0.21 | 922.51 ± 0.21 | 918.26 ± 0.21
x1 = 0.8003 | 942.07 ± 0.21 | 937.9 ± 0.21 | 933.7 ± 0.21 | 929.52 ± 0.21 | 925.3 ± 0.21
x1 = 0.8498 | 948.8 ± 0.21 | 944.66 ± 0.21 | 940.48 ± 0.21 | 936.33 ± 0.21 | 932.14 ± 0.21
x1 = 0.8986 | 955.23 ± 0.21 | 951.09 ± 0.21 | 946.94 ± 0.21 | 942.83 ± 0.21 | 938.64 ± 0.21
x1 = 0.9502 | 961.82 ± 0.21 | 957.69 ± 0.21 | 953.57 ± 0.21 | 949.47 ± 0.21 | 945.33 ± 0.21
x1 = 1 | 967.99 ± 0.21 | 963.87 ± 0.21 | 959.76 ± 0.21 | 955.68 ± 0.21 | 951.57 ± 0.21

C[Si](C)(O[Si](C)(C)c1ccccc1)c1ccccc1 [1,3-diphenyltetramethyldisiloxane] + C[Si]1(C)O[Si](C)(C)O[Si](C)(C)O[Si](C)(C)O1
mass density [kg/m3]
Details | 308.15 K | 313.15 K | 318.15 K | 323.15 K | 328.15 K
x1 = 0.05 | 940.79 ± 0.22 | 935.08 ± 0.22 | 929.44 ± 0.22 | 923.79 ± 0.22 | 918.1 ± 0.22
x1 = 0.0999 | 942.6 ± 0.22 | 937.01 ± 0.22 | 931.46 ± 0.22 | 925.91 ± 0.22 | 920.32 ± 0.22
x1 = 0.1503 | 944.43 ± 0.22 | 938.95 ± 0.22 | 933.49 ± 0.22 | 928.04 ± 0.22 | 922.57 ± 0.22
x1 = 0.2005 | 946.19 ± 0.22 | 940.8 ± 0.22 | 935.45 ± 0.22 | 930.1 ± 0.22 | 924.72 ± 0.22
x1 = 0.2507 | 947.88 ± 0.22 | 942.59 ± 0.22 | 937.33 ± 0.22 | 932.06 ± 0.22 | 926.77 ± 0.22
x1 = 0.2963 | 949.39 ± 0.21 | 944.19 ± 0.21 | 939.02 ± 0.22 | 933.84 ± 0.22 | 928.63 ± 0.22
x1 = 0.3509 | 951.16 ± 0.21 | 946.05 ± 0.21 | 940.97 ± 0.21 | 935.88 ± 0.21 | 930.78 ± 0.22
x1 = 0.4001 | 952.67 ± 0.21 | 947.66 ± 0.21 | 942.65 ± 0.21 | 937.65 ± 0.21 | 932.62 ± 0.21
x1 = 0.4471 | 954.04 ± 0.21 | 949.1 ± 0.21 | 944.16 ± 0.21 | 939.26 ± 0.21 | 934.29 ± 0.21
x1 = 0.4968 | 955.6 ± 0.21 | 950.74 ± 0.21 | 945.91 ± 0.21 | 941.08 ± 0.21 | 936.23 ± 0.21
x1 = 0.5512 | 957.17 ± 0.21 | 952.39 ± 0.21 | 947.64 ± 0.21 | 942.9 ± 0.21 | 938.15 ± 0.21
x1 = 0.6003 | 958.51 ± 0.21 | 953.82 ± 0.21 | 949.15 ± 0.21 | 944.46 ± 0.21 | 939.79 ± 0.21
x1 = 0.6502 | 959.83 ± 0.21 | 955.22 ± 0.21 | 950.62 ± 0.21 | 946.01 ± 0.21 | 941.41 ± 0.21
x1 = 0.7001 | 961.15 ± 0.21 | 956.6 ± 0.21 | 952.09 ± 0.21 | 947.56 ± 0.21 | 943.03 ± 0.21
x1 = 0.7497 | 962.4 ± 0.21 | 957.92 ± 0.21 | 953.48 ± 0.21 | 949.04 ± 0.21 | 944.59 ± 0.21
x1 = 0.8 | 963.64 ± 0.21 | 959.25 ± 0.21 | 954.87 ± 0.21 | 950.49 ± 0.21 | 946.11 ± 0.21
x1 = 0.85 | 964.8 ± 0.21 | 960.48 ± 0.21 | 956.18 ± 0.21 | 951.88 ± 0.21 | 947.58 ± 0.21
x1 = 0.896 | 965.82 ± 0.21 | 961.53 ± 0.21 | 957.3 ± 0.21 | 953.03 ± 0.21 | 948.8 ± 0.21
x1 = 0.9497 | 967 ± 0.21 | 962.79 ± 0.21 | 958.63 ± 0.21 | 954.45 ± 0.21 | 950.29 ± 0.21
x1 = 1 | 968.05 ± 0.21 | 963.92 ± 0.21 | 959.8 ± 0.21 | 955.69 ± 0.21 | 951.58 ± 0.21
